Values after ≈ are worked out from the molar mass of the structure shown. Where two headings read alike, the source gives them in different places.
Columns and labels:
P. aeruginosa ATCC 35151 = assay: microbe, parasite or virus in culture; type: cell-based; conditions: Pseudomonas aeruginosa, ATCC35151, read-out: Minimum inhibitory concentration, P. aeruginosa ATCC 35151
A. baumannii ATCC 17978 = assay: microbe, parasite or virus in culture; type: cell-based; conditions: Acinetobacter baumannii
[1] = test system: B. thailandensis ATCC 700388; assay: microbe, parasite or virus in culture; type: cell-based; conditions: Burkholderia thailandensis, ATCC700388, read-out: Minimum inhibitory concentration (MIC), B. thailandensis ATCC 700388
A. baumannii 1258916 = assay: microbe, parasite or virus in culture; type: cell-based, Acinetobacter baumannii
A. baumannii PBP1a = biological target: T1, A. baumannii PBP1a (Acinetobacter baumannii, UniProt A0ABX6CK30); assay: Bocillin-FL competition binding via gel filtration, A. baumannii PBP1a; conditions: competition binding assay using Bocillin-FL via gel filtration; read-out: A. baumannii PBP1a Potency
T1 sequence (A0ABX6CK30 1-851): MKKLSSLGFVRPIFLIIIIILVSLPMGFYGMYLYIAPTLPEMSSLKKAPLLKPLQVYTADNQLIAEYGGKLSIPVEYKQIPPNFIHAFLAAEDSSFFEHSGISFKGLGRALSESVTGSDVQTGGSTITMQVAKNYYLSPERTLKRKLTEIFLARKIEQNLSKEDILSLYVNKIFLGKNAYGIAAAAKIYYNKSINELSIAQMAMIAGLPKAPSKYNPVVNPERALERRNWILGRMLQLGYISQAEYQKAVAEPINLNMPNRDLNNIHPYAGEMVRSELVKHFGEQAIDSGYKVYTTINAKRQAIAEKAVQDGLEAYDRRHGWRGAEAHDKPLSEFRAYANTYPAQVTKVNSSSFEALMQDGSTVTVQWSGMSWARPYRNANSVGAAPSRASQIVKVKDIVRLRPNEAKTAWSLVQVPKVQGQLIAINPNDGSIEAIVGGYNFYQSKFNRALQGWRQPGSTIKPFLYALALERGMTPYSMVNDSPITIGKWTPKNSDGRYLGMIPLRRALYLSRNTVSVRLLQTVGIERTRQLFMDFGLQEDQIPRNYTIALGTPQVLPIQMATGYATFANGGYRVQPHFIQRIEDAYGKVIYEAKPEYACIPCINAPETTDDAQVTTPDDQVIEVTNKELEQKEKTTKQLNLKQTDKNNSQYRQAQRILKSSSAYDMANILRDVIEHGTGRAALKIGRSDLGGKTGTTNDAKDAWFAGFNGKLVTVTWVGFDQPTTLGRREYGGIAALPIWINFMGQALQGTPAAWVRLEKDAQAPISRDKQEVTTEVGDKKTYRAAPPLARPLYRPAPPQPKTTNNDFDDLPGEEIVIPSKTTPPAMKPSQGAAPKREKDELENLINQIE
Procedure, shortened: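 Enzyme was pre-incubated with rising inhibitor concentrations, then Bocillin-FL was added and incubated 15 minutes more. Bound probe was separated by gel filtration and fluorescence read. EC50 came from fitting fraction of PBP labelled versus inhibitor concentration to a Hill equation with ymin, ymax and n.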

P. aeruginosa CDC-0090 = assay: microbe, parasite or virus in culture; type: cell-based; conditions: Pseudomonas aeruginosa, CDC0090, read-out: Minimum inhibitory concentration, P. aeruginosa CDC-0090
A. baumannii CDC-0033 = assay: microbe, parasite or virus in culture; type: cell-based; conditions: Acinetobacter baumannii
P. aeruginosa ATCC 27853 = assay: microbe, parasite or virus in culture; type: cell-based; conditions: Pseudomonas aeruginosa, ATCC27853, read-out: Minimum inhibitory concentration, P. aeruginosa ATCC 27853
[2] = test system: B. humptydooensis ATCC BAA-2767; assay: microbe, parasite or virus in culture; type: cell-based; conditions: Burkholderia humptydooensis, ATCCBAA2767, read-out: Minimum inhibitory concentration (MIC), B. humptydooensis ATCC BAA-2767
P. aeruginosa CDC-0054 = assay: microbe, parasite or virus in culture; type: cell-based; conditions: Pseudomonas aeruginosa, CDC0054, read-out: Minimum inhibitory concentration, P. aeruginosa CDC-0054
P. aeruginosa CDC-0095 = assay: microbe, parasite or virus in culture; type: cell-based; conditions: Pseudomonas aeruginosa, CDC0095, read-out: Minimum inhibitory concentration, P. aeruginosa CDC-0095
[3] = ATCC17978, read-out: MIC, A. baumannii ATCC 17978
[4] = Acinetobacter baumannii, 1258916, read-out: MIC, A. baumannii 1258916
[5] = CDC0033, read-out: MIC, A. baumannii CDC-0033
[6] = ATCC17978, read-out: Minimum inhibitory concentration (MIC), A. baumannii ATCC 17978
[7] = Acinetobacter baumannii, 1258916, read-out: Minimum inhibitory concentration (MIC), A. baumannii 1258916
[8] = CDC0033, read-out: Minimum inhibitory concentration (MIC), A. baumannii CDC-0033

SMILES | MIC (P. aeruginosa ATCC 35151) | MIC (A. baumannii ATCC 17978; [3]) | MIC [1] | MIC (A. baumannii 1258916; [4]) | EC50 (A. baumannii PBP1a) | MIC (P. aeruginosa CDC-0090) | MIC (A. baumannii CDC-0033; [5]) | MIC (P. aeruginosa ATCC 27853) | MIC [2] | MIC (P. aeruginosa CDC-0054) | MIC (P. aeruginosa CDC-0095) | MIC (A. baumannii ATCC 17978; [6]) | MIC (A. baumannii 1258916; [7]) | MIC (A. baumannii CDC-0033; [8])
O=C(O)c1c(F)ccc2c1OB(O)[C@@H](NC(=O)[C@H](NC(=O)N1CCN(C3CCN(C(=O)Nc4cc(O)ccc4Cl)CC3)C1=O)c1cc(F)c(O)c(O)c1Cl)C2 (single isomer, unassigned) [Example 448] | < 1 µg/mL | < 1 µg/mL | < 1 µg/mL | < 1 µg/mL | < 10 µM | < 1 µg/mL | < 1 µg/mL | < 1 µg/mL | < 1 µg/mL | < 1 µg/mL | < 1 µg/mL |  |  | 
O=C(O)c1c(F)ccc2c1OB(O)[C@@H](NC(=O)[C@H](NC(=O)N1CCN(C3CCN(C(=O)Nc4c(F)ccc(O)c4Cl)CC3)C1=O)c1cc(F)c(O)c(O)c1Cl)C2 (single isomer, unassigned) [Example 455] | < 1 µg/mL | < 1 µg/mL | < 1 µg/mL | < 1 µg/mL | < 10 µM | < 1 µg/mL | < 1 µg/mL | < 1 µg/mL | < 1 µg/mL | < 1 µg/mL | < 1 µg/mL |  |  | 
O=C(O)c1c(F)ccc2c1OB(O)[C@@H](NC(=O)C(NC(=O)N1CCN(S(=O)(=O)c3ccc(O)c(O)c3Cl)C1=O)c1ccc(P(=O)(O)O)cc1)C2 (stereo partly drawn) [Example 505, (3R)-3-(2-(3-((2-chloro-3,4-dihydroxyphenyl)sulfonyl)-2-oxoimidazolidine-1-carboxamido)-2-(4-phosphonophenyl)acetamido)-7-fluoro-2-hydroxy-3,4-dihydro-2H-benzo[e][1,2]oxaborinine-8-carboxylic acid] | < 1 µg/mL |  | < 1 µg/mL |  | < 10 µM | < 1 µg/mL |  | < 1 µg/mL | < 1 µg/mL | < 1 µg/mL | < 1 µg/mL | < 1 µg/mL | < 1 µg/mL | < 1 µg/mL
O=C(O)c1c(F)ccc2c1OB(O)[C@@H](NC(=O)[C@H](NC(=O)N1CCN(C3CCN(C(=O)c4cc(O)cc(F)c4)CC3)C1=O)c1cc(F)c(O)c(O)c1Cl)C2 (single isomer, unassigned) [Example 436] | < 1 µg/mL | < 1 µg/mL | < 1 µg/mL | < 1 µg/mL | < 10 µM | < 1 µg/mL | < 1 µg/mL | < 1 µg/mL | < 1 µg/mL | < 1 µg/mL | < 1 µg/mL |  |  | 
O=C(O)c1c(F)ccc2c1OB(O)[C@@H](NC(=O)[C@H](NC(=O)N1CCN(C3CCN(C(=O)c4cc(O)ccc4F)CC3)C1=O)c1cc(F)c(O)c(O)c1Cl)C2 (single isomer, unassigned) [Example 433] | < 1 µg/mL | < 1 µg/mL | < 1 µg/mL | < 1 µg/mL | < 10 µM | < 1 µg/mL | < 1 µg/mL | < 1 µg/mL | < 1 µg/mL | < 1 µg/mL | < 1 µg/mL |  |  | 
O=C(O)c1c(F)ccc2c1OB(O)[C@@H](NC(=O)[C@H](NC(=O)N1CCN(C3CCN(C(=O)c4c(F)ccc(O)c4F)CC3)C1=O)c1cc(F)c(O)c(O)c1Cl)C2 (single isomer, unassigned) [Example 439] | < 1 µg/mL | < 1 µg/mL | < 1 µg/mL | < 1 µg/mL | 10 to 50 µM | < 1 µg/mL | < 1 µg/mL | < 1 µg/mL | < 1 µg/mL | 2 to 4 µg/mL (≈ 2.52 to 5.04 µM) | 2 to 4 µg/mL (≈ 2.52 to 5.04 µM) |  |  | 
O=C(O)c1c(F)ccc2c1OB(O)[C@@H](NC(=O)[C@H](NC(=O)N1CCN(C3CCN(C(=O)c4c(F)ccc(O)c4Cl)CC3)C1=O)c1cc(F)c(O)c(O)c1Cl)C2 (single isomer, unassigned) [Example 440] | < 1 µg/mL | < 1 µg/mL | < 1 µg/mL | < 1 µg/mL | < 10 µM | < 1 µg/mL | < 1 µg/mL | < 1 µg/mL | < 1 µg/mL | < 1 µg/mL | < 1 µg/mL |  |  | 
O=C(O)c1c(F)ccc2c1OB(O)[C@@H](NC(=O)[C@H](NC(=O)N1CCN(C3CCN(C(=O)Nc4cccc(O)c4F)CC3)C1=O)c1cc(F)c(O)c(O)c1Cl)C2 (single isomer, unassigned) [Example 446] | < 1 µg/mL | < 1 µg/mL | < 1 µg/mL | < 1 µg/mL | 10 to 50 µM | < 1 µg/mL | < 1 µg/mL | < 1 µg/mL | < 1 µg/mL | < 1 µg/mL | < 1 µg/mL |  |  | 
O=C(O)c1c(F)ccc2c1OB(O)[C@@H](NC(=O)C(NC(=O)N1CCN(C3CCN(C(=O)Nc4ccc(F)c(O)c4)CC3)C(=O)C1=O)c1cc(F)c(O)c(O)c1Cl)C2 (stereo partly drawn) [Example 480, (3R)-3-(2-(2-chloro-5-fluoro-3,4-dihydroxyphenyl)-2-(4-(1-((4-fluoro-3-hydroxyphenyl)carbamoyl)piperidin-4-yl)-2,3-dioxopiperazine-1-carboxamido)acetamido)-7-fluoro-2-hydroxy-3,4-dihydro-2H-benzo[e][1,2]oxaborinine-8-carboxylic acid] | < 1 µg/mL | < 1 µg/mL | 2 to 4 µg/mL (≈ 2.44 to 4.88 µM) | < 1 µg/mL | < 10 µM | 2 to 4 µg/mL (≈ 2.44 to 4.88 µM) | 2 to 4 µg/mL (≈ 2.44 to 4.88 µM) | 2 to 4 µg/mL (≈ 2.44 to 4.88 µM) | 8 to 16 µg/mL (≈ 9.77 to 19.5 µM) | < 1 µg/mL | < 1 µg/mL |  |  | 
O=C(O)c1c(F)ccc2c1OB(O)[C@@H](NC(=O)[C@H](NC(=O)N1CCN(C3CCN(C(=O)c4cc(F)c(O)c(O)c4Cl)CC3)C1=O)c1ccc(P(=O)(O)O)cc1)C2 (single isomer, unassigned) [Example 495] | < 1 µg/mL |  | < 1 µg/mL |  | < 10 µM | < 1 µg/mL |  | < 1 µg/mL | < 1 µg/mL | < 1 µg/mL | 32 to 64 µg/mL (≈ 38.9 to 77.9 µM) | < 1 µg/mL | < 1 µg/mL | < 1 µg/mL
O=C(O)c1cccc2c1OB(O)[C@@H](NC(=O)C(NC(=O)N1CCN(Cc3cc(F)c(O)c(O)c3Cl)C(=O)C1=O)c1ccc(P(=O)(O)O)cc1)C2 (stereo partly drawn) [Example 164, (3R)-3-(2-(4-(2-chloro-5-fluoro-3,4-dihydroxybenzyl)-2,3-dioxopiperazine-1-carboxamido)-2-(4-phosphonophenyl)acetamido)-2-hydroxy-3,4-dihydro-2H-benzo[e][1,2]oxaborinine-8-carboxylic acid] | < 1 µg/mL | < 1 µg/mL | < 1 µg/mL | < 1 µg/mL | < 10 µM | < 1 µg/mL | < 1 µg/mL | < 1 µg/mL | < 1 µg/mL | < 1 µg/mL | < 1 µg/mL |  |  | 
O=C(O)c1c(F)ccc2c1OB(O)[C@@H](NC(=O)[C@H](NC(=O)N1CCN(C3CCN(C(=O)Nc4cc(F)c(O)c(O)c4Cl)CC3)C1=O)c1ccc(P(=O)(O)O)cc1)C2 (single isomer, unassigned) [Example 500] | < 1 µg/mL |  | < 1 µg/mL |  | < 10 µM | 2 to 4 µg/mL (≈ 2.39 to 4.78 µM) |  | < 1 µg/mL | < 1 µg/mL | < 1 µg/mL | < 1 µg/mL | < 1 µg/mL | < 1 µg/mL | < 1 µg/mL

Reference: patent US20240270762A1, “PENICILLIN-BINDING PROTEIN INHIBITORS” (priority 2021, published 2024)
